In ChEMBL document CHEMBL1782045, “Discovery, synthesis, and investigation of the antitumor activity of novel piperazinylpyrimidine derivatives” (Eur J Med Chem, 2011):

Key:
[1] = molecular target: Cyclin-dependent kinase 19 (Homo sapiens) (UniProt Q9BWU1); assay: Binding affinity to human CDK11 at 10 uM incubated for 1 hr by kinase binding assay relative to untreated control
[2] = tested on: SK-MEL-2; assay: Growth inhibition of human SK-MEL-2 cells after 48 hrs by sulforhodamine B assay; format: functional; conditions: SK-MEL-2, 48 h
[3] = tested on: Platelet-derived growth factor receptor alpha (Homo sapiens), P16234 [D842V]; assay: Inhibition of human PDGFRA D842V using gamma-33P-ATP as substrate assessed as enzyme functional activity at 1 uM by scintillation counting relative to untreated control; design: scale not given: the % may be the effect or the level left
[4] = tested on: T1, Receptor-type tyrosine-protein kinase FLT3 (Homo sapiens), P36888 [D835H]; assay: Binding affinity to human FLT3 D835H mutant at 10 uM incubated for 1 hr by kinase binding assay relative to untreated control
T1 sequence (whole entry): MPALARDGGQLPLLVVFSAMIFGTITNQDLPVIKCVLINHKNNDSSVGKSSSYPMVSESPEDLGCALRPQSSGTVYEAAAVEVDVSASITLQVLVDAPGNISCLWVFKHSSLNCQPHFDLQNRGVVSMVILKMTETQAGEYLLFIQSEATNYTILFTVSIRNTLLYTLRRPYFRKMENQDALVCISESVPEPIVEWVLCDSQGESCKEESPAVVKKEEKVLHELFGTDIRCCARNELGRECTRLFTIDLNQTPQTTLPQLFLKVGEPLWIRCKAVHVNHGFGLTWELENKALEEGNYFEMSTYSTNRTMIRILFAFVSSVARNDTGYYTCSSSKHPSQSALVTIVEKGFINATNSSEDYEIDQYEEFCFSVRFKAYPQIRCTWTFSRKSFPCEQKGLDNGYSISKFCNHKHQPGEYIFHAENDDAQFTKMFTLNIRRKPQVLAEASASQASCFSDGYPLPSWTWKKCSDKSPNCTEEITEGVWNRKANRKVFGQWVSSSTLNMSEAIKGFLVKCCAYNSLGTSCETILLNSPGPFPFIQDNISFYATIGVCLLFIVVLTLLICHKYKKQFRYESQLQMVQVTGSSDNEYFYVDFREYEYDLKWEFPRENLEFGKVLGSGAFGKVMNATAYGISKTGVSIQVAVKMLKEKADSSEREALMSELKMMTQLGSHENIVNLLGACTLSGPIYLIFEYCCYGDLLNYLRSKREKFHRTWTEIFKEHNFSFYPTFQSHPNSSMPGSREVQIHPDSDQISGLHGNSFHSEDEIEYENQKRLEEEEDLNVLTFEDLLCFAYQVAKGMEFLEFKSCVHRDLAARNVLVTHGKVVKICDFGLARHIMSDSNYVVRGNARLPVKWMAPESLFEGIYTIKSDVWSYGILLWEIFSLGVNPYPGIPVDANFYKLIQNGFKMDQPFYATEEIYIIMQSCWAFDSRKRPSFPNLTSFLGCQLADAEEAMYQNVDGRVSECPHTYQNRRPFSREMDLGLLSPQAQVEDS

[5] = molecular target: Mast/stem cell growth factor receptor Kit (Homo sapiens) (UniProt P10721); assay: Inhibition of human KIT using gamma-33P-ATP as substrate assessed as enzyme functional activity at 1 uM by scintillation counting relative to untreated control; design: scale not given: the % may be the effect or the level left
[6] = tested on: MOLT-4; assay: Cytotoxicity against human MOLT4 cells after 48 hrs by sulforhodamine B assay; format: cell-based; conditions: molt-4, 48 h
[7] = tested on: ACHN; assay: Growth inhibition of human ACHN cells after 48 hrs by sulforhodamine B assay; format: functional
[8] = tested on: Mast/stem cell growth factor receptor Kit (Homo sapiens), P10721 [L576P]; assay: Binding affinity to human KIT L576P mutant at 10 uM incubated for 1 hr by kinase binding assay relative to untreated control
[9] = tested on: A498; assay: Growth inhibition of human A498 cells after 48 hrs by sulforhodamine B assay; format: functional; conditions: A498, 48 h
[10] = tested on: UACC-257; assay: Growth inhibition of human UACC257 cells after 48 hrs by sulforhodamine B assay; format: functional; conditions: UACC-257, 48 h
[11] = tested on: SK-MEL-5; assay: Growth inhibition of human SK-MEL-5 cells after 48 hrs by sulforhodamine B assay; format: functional; conditions: SK-MEL-5, 48 h
[12] = molecular target: Receptor-type tyrosine-protein kinase FLT3 (Homo sapiens) (UniProt P36888); assay: Binding affinity to human FLT3 at 10 uM incubated for 1 hr by kinase binding assay relative to untreated control
[13] = tested on: Mast/stem cell growth factor receptor Kit (Homo sapiens), P10721 [V559D]; assay: Binding affinity to human KIT V559D mutant at 10 uM incubated for 1 hr by kinase binding assay relative to untreated control
[14] = tested on: RPMI-8226; assay: Growth inhibition of human RPMI8226 cells after 48 hrs by sulforhodamine B assay; format: functional; conditions: RPMI-8226, 48 h
[15] = tested on: UO-31; assay: Cytotoxicity against human UO31 cells after 48 hrs by sulforhodamine B assay; format: cell-based; conditions: uo-31, 48 h
[16] = tested on: EKVX; assay: Growth inhibition of human EKVX cells after 48 hrs by sulforhodamine B assay; format: functional
[17] = molecular target: RAC-beta serine/threonine-protein kinase (Homo sapiens) (UniProt P31751); assay: Inhibition of human PKBbeta using gamma-33P-ATP as substrate assessed as enzyme functional activity at 1 uM by scintillation counting relative to untreated control; design: scale not given: the % may be the effect or the level left
[18] = tested on: NCI/ADR-RES; assay: Growth inhibition of human NCI/ADR-RES cells after 48 hrs by sulforhodamine B assay; format: functional
[19] = tested on: SF-295; assay: Cytotoxicity against human SF295 cells after 48 hrs by sulforhodamine B assay; format: cell-based; conditions: sf-295, 48 h
[20] = tested on: Hs-578T; assay: Growth inhibition of human Hs578T cells after 48 hrs by sulforhodamine B assay; format: functional
[21] = tested on: MDA-MB-435; assay: Growth inhibition of human MDA-MB-435 cells after 48 hrs by sulforhodamine B assay; format: functional; conditions: MDA-MB-435, 48 h
[22] = tested on: MCF7; assay: Cytotoxicity against human MCF7 cells after 48 hrs by sulforhodamine B assay; format: cell-based; conditions: mcf7, 48 h
[23] = tested on: HCT-15; assay: Growth inhibition of human HCT15 cells after 48 hrs by sulforhodamine B assay; format: functional; conditions: HCT-15, 48 h
[24] = tested on: NCI-H322M; assay: Growth inhibition of human NCI-H322M cells after 48 hrs by sulforhodamine B assay; format: functional
[25] = tested on: Hs-578T; assay: Cytotoxicity against human Hs578T cells after 48 hrs by sulforhodamine B assay; format: cell-based
[26] = molecular target: Serine/threonine-protein kinase B-raf (Homo sapiens) (UniProt P15056); assay: Binding affinity to human BRAF at 10 uM incubated for 1 hr by kinase binding assay relative to untreated control
[27] = tested on: Malme-3M; assay: Growth inhibition of human MALME-3M cells after 48 hrs by sulforhodamine B assay; format: functional
[28] = tested on: CCRF-CEM; assay: Cytotoxicity against human CCRF-CEM cells after 48 hrs by sulforhodamine B assay; format: cell-based
[29] = tested on: OVCAR-8; assay: Growth inhibition of human OVCAR8 cells after 48 hrs by sulforhodamine B assay; format: functional; conditions: OVCAR-8, 48 h
[30] = tested on: CAKI-1; assay: Growth inhibition of human Caki1 cells after 48 hrs by sulforhodamine B assay; format: functional; conditions: CAKI-1, 48 h

Chain of Serine/threonine-protein kinase B-raf (Homo sapiens) (P15056 whole entry): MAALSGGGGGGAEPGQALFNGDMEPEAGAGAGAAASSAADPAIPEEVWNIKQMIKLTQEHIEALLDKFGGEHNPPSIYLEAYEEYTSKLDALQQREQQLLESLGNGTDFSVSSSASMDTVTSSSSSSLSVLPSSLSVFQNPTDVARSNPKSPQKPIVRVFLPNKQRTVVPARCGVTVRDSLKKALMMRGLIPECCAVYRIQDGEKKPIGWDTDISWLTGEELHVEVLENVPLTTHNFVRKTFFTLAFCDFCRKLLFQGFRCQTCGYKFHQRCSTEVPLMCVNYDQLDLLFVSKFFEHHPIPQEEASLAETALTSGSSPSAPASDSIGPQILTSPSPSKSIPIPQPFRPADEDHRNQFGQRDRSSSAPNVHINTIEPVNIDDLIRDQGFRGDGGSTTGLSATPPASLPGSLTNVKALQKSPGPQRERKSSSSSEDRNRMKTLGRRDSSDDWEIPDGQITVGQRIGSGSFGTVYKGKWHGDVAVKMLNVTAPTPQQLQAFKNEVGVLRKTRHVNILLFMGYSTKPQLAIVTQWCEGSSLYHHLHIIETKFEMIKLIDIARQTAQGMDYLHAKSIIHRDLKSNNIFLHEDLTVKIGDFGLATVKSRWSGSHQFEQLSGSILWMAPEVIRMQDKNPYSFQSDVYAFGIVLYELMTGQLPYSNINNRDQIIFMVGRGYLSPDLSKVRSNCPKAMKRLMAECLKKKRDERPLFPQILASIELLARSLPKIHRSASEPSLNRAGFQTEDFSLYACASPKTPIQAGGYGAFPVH
Chain of Cyclin-dependent kinase 19 (Homo sapiens) (Q9BWU1 whole entry): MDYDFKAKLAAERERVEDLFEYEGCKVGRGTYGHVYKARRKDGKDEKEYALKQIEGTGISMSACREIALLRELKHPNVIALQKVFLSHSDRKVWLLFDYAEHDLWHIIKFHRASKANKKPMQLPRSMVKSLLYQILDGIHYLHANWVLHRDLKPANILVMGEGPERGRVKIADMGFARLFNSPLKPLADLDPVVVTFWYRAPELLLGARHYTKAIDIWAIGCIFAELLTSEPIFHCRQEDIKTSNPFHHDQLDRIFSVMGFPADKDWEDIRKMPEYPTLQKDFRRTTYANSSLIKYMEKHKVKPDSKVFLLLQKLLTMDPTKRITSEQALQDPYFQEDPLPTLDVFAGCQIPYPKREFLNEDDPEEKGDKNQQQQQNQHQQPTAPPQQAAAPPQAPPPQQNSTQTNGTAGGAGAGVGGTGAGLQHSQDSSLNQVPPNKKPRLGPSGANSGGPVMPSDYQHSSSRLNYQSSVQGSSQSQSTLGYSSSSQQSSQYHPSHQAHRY
Chain of RAC-beta serine/threonine-protein kinase (Homo sapiens) (P31751 whole entry): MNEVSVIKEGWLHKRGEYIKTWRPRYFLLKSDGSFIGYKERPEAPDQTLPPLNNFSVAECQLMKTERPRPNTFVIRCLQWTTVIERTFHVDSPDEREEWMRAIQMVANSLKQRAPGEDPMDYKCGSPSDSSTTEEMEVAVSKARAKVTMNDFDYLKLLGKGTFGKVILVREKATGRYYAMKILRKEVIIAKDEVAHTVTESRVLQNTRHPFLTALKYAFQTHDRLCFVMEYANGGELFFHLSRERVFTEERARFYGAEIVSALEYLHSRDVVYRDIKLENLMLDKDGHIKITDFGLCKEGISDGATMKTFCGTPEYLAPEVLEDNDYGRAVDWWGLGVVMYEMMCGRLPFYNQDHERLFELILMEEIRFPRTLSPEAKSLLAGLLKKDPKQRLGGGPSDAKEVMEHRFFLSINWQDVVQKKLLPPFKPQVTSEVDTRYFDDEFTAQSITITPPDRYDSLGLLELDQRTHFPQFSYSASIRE
Chain of Platelet-derived growth factor receptor alpha (Homo sapiens), P16234 [D842V] (P16234 whole entry D842V): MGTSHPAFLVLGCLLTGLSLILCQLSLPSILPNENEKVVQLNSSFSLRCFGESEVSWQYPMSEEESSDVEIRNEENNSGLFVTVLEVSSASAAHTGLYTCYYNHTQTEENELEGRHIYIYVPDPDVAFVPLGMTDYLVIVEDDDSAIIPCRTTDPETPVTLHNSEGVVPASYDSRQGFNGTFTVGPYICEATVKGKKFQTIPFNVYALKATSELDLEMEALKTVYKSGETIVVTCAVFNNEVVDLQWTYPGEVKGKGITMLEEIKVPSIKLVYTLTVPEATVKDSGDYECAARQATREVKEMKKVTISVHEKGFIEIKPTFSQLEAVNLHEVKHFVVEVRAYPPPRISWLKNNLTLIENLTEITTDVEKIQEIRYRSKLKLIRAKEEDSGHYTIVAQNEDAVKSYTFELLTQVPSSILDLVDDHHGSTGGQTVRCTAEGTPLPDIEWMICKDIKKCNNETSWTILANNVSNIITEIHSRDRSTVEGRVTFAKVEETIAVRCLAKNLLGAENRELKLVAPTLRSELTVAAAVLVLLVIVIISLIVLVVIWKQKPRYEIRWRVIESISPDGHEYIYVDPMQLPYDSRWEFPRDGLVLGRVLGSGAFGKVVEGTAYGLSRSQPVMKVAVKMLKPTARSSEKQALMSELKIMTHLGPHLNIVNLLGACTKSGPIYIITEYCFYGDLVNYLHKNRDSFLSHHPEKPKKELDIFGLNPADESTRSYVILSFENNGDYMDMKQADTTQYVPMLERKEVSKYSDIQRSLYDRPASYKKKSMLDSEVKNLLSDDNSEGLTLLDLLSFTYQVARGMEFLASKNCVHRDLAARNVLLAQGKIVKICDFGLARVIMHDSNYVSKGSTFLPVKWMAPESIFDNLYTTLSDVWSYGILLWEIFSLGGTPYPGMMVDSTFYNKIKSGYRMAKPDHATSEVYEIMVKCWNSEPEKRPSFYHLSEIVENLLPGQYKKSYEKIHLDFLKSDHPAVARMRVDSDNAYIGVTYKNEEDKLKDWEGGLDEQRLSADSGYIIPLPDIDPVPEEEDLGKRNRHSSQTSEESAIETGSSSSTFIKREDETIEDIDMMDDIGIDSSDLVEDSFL
Chain of Mast/stem cell growth factor receptor Kit (Homo sapiens), P10721 [L576P] (P10721 whole entry L576P): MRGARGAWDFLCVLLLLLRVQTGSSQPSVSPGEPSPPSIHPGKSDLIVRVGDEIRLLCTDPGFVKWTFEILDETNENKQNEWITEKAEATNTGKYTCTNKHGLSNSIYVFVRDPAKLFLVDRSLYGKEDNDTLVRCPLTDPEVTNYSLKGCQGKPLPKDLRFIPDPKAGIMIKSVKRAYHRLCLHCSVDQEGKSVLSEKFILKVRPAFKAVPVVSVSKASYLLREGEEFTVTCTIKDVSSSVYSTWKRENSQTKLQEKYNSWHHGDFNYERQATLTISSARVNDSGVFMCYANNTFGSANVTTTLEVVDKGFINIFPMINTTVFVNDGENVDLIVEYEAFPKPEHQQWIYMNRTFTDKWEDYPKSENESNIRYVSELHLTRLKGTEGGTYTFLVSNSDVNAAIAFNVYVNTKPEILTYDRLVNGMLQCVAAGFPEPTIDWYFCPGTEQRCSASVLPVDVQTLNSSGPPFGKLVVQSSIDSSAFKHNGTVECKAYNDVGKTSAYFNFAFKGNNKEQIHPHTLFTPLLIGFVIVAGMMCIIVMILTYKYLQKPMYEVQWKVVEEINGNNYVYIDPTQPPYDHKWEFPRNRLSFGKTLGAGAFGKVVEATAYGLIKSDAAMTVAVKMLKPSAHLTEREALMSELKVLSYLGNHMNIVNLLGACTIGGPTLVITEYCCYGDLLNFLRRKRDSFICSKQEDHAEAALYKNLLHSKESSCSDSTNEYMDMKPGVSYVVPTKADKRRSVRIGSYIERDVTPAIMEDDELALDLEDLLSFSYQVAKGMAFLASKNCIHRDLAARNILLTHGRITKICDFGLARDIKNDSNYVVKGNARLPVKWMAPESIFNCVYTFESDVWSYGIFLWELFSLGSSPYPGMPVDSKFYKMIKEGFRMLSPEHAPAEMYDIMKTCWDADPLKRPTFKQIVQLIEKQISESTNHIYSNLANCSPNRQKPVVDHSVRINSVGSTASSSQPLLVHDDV
Chain of Mast/stem cell growth factor receptor Kit (Homo sapiens) (P10721 whole entry): as the sequence (P10721 whole entry L576P) above, with P576L counted along it
Chain of Mast/stem cell growth factor receptor Kit (Homo sapiens), P10721 [V559D] (P10721 whole entry V559D): as the sequence (P10721 whole entry L576P) above, with V559D, P576L counted along it

SMILES	Activity [1]	TGI [2]	Activity [3]	Activity [4]	Activity [5]	LC50 [6]	TGI [7]	Activity [8]	TGI [9]	TGI [10]	Activity [12]	LC50 [15]	Activity [17]	TGI [18]	TGI [21]	LC50 [22]	TGI [23]	TGI [24]	LC50 [25]	Activity [26]	further results
O=C(c1cccc(Nc2ncnc3ccccc23)c1)N1CCN(c2ncc(Cc3ccccc3)cn2)CC1	> 50%	2.69 µM	96%	> 50%	100%	> 100 µM	4.57 µM	> 50%	5.37 µM	2.63 µM	> 50%	4.37 µM	83%	8.51 µM	2.14 µM	5.62 µM	3.55 µM	4.79 µM	> 100 µM	> 50%	TGI [11]: 1.2 µM; Activity [13]: > 50%; TGI [14]: 0.6 µM; TGI [16]: 4.9 µM; LC50 [19]: > 100 µM; TGI [20]: 7.41 µM
c1ccc(Cc2cnc(N3CCN(c4ncnc5ccccc45)CC3)nc2)cc1	0%	35.8 µM		46%		> 100 µM	42.4 µM		24.2 µM		8.4%	> 100 µM	89%	17.6 µM	27.5 µM	> 100 µM	63.2 µM	> 100 µM	> 100 µM	> 50%	TGI [27]: 33.6 µM; LC50 [28]: > 100 µM; TGI [11]: 13.9 µM; TGI [14]: 21.8 µM; TGI [16]: 33.1 µM; TGI [29]: 25.6 µM; TGI [30]: 39.3 µM
CCc1cnc(N2CCN(C(=O)c3ccc(CNc4ncnc5ccccc45)cc3)CC2)nc1	47%	> 100 µM	100%	> 50%	100%	> 100 µM	82.5 µM	> 50%	> 100 µM	26.8 µM	> 50%	> 100 µM	82%	21.5 µM	> 100 µM	> 100 µM	> 100 µM	> 100 µM	> 100 µM	34%	TGI [27]: 42.2 µM; LC50 [28]: > 100 µM; Activity [13]: > 50%; TGI [29]: > 100 µM; LC50 [19]: > 100 µM; TGI [20]: > 100 µM; TGI [30]: 94.8 µM
